Results on 29 compounds are retold here after patent US20100311749A1, “4-BENZOYL-1-SUBSTITUTED-PIPERAZIN-2-ONE DERIVATIVES AS P2X7 MODULATORS” (priority 2007, published 2010).

This assay addresses T1, human P2X7 receptor (Homo sapiens, UniProt Q99572).
T1 construct: expressed in transfected cells
T1 sequence (Q99572 1-595): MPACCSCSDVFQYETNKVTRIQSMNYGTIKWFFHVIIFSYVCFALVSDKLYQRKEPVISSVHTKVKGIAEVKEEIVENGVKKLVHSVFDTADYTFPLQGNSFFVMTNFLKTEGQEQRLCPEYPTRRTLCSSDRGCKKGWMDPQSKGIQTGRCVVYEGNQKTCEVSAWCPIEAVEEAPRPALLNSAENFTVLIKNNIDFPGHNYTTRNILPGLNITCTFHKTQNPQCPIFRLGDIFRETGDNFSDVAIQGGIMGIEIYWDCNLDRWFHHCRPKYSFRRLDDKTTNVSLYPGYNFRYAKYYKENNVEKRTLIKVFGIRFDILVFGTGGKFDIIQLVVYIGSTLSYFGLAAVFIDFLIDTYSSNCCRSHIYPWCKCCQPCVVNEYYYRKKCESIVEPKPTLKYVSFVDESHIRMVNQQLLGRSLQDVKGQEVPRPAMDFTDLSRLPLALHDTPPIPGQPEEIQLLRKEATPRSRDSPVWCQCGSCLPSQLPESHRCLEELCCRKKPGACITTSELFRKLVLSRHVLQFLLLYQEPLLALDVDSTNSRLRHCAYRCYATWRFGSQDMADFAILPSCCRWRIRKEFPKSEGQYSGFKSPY
The assay can be described thus: Ethidium Accumulation Assay. The format is cell-based. As to conditions: HEK293 cells stably expressing human recombinant P2X7 receptors; 1 mM ATP; values given as 'about'; read-out: pIC50 for human P2X7 receptor antagonist activity (blocking ATP responses) in the Ethidium Accumulation Assay (converted). How it is done:
Studies were performed using NaCl assay buffer of the following composition: 140 mM NaCl, 10 mM HEPES [4-(2-hydroxyethyl)-1-piperazine-1-ethanesulfonic acid], 5 mM N-methyl-D-glucamine, 5.6 mM KCl, 10 mM D-glucose, 0.5 mM CaCl2 (pH 7.4).
Human Embryonic Kidney (HEK) 293 cells, stably expressing human recombinant P2X7 receptors, were grown in poly-D-lysine pre-treated 96 well plates for 18-24 hours. […] The cells were washed twice with 350 μl of the assay buffer, before addition of 50 μl of the assay buffer containing the putative P2X7 receptor antagonist compound. (A small amount of dimethyl sulfoxide, for initially dissolving the compound, is optionally used and present in this 50 μl test compound sample.) The cells were then incubated at room temperature (19-21° C.) for 30 min before addition of ATP and ethidium (100 μM final assay concentration). The ATP concentration was chosen to be close to the EC80 for the receptor type and was 1 mM for studies on the human P2X7 receptor. Incubations were continued for 8 or 16 min and were terminated by addition of 25 μl of 1.3M sucrose containing 4 mM of the P2X7 receptor antagonist Reactive Black 5 (Aldrich). […] Antagonist pIC50 values for blocking ATP responses were determined using iterative curve fitting techniques.
In the case of `CCCN1CCN(C(=O)c2cccc(C(F)(F)F)c2Cl)CC1=O` [Example 49, 4-{[2-chloro-3-(trifluoromethyl)phenyl]carbonyl}-1-propyl-2-piperazinone], the IC50 is 2.51 to 100 nM.

In the case of `Cc1ccc(N2CCOCC2)cc1N1CCN(C(=O)c2cccc(Cl)c2Cl)CC1=O` [Example 54, 4-[(2,3-dichlorophenyl)carbonyl]-1-[2-methyl-5-(4-morpholinyl)phenyl]-2-piperazinone], the IC50 was 2.51 to 100 nM. As for `O=C(c1cccc(Cl)c1Cl)N1CCN(c2ccccc2Cl)C(=O)C1` [Example 6, 1-(2-Dichlorophenyl)-4-[(2,3-dichlorophenyl)carbonyl]-2-piperazinone], the IC50 was 5.01 to 200 nM. Regarding `O=C(c1c(Cl)cc(Cl)cc1Cl)N1CCN(c2cc(N3CCOCC3)ccc2Cl)C(=O)C1` [Example 77, 1-[2-chloro-5-(4-morpholinyl)phenyl]-4-[(2,4,6-trichlorophenyl)carbonyl]-2-piperazinone], the IC50 is 2.51 to 100 nM. For the compound `CC(C)c1ccccc1N1CCN(C(=O)c2cccc(C(F)(F)F)c2Cl)CC1=O` [Example 25, 4-{[2-chloro-3-(trifluoromethyl)phenyl]carbonyl}-1-[2-(1-methylethyl)phenyl]-2-piperazinone], the IC50 was 2.51 to 100 nM.

`O=C(c1cccc(C(F)(F)F)c1Cl)N1CCN(c2cccc(N3CCOCC3)c2Cl)C(=O)C1` [Example 79, 1-[2-chloro-3-(4-morpholinyl)phenyl]-4-{[2-chloro-3-(trifluoromethyl)phenyl]carbonyl}-2-piperazinone]: the IC50 is 2.51 to 100 nM. To `O=C(c1cccc(C(F)(F)F)c1Cl)N1CCN(c2ccccc2Cl)C(=O)C1` [Example 9, 1-(2-Chlorophenyl)-4-{[2-chloro-3-(trifluoromethyl)phenyl]carbonyl}-2-piperazinone] belongs 5.01 to 200 nM; to `O=C(c1cccc(C(F)(F)F)c1Cl)N1CCN(c2ccc(F)cc2F)C(=O)C1` [Example 21, 4-{[2-chloro-3-(trifluoromethyl)phenyl]carbonyl}-1-(2,4-difluorophenyl)-2-piperazinone], 2.51 to 100 nM; to `Cc1ccc(N2CCOCC2)cc1N1CCN(C(=O)c2cccc(C(F)(F)F)c2Cl)CC1=O` [Example 55, 4-{[2-chloro-3-(trifluoromethyl)phenyl]carbonyl}-1-[2-methyl-5-(4-morpholinyl)phenyl]-2-piperazinone], 2.51 to 100 nM. To `CCN1CCN(C(=O)c2cccc(Cl)c2Cl)CC1=O` [Example 17, 4-[(2,3-Dichlorophenyl)carbonyl]-1-ethyl-2-piperazinone] belongs 5.01 to 200 nM; to `O=C(c1ccc(F)cc1Cl)N1CCN(c2ccccc2Cl)C(=O)C1` [Example 5, 4-[(2-Chloro-4-fluorophenyl)carbonyl]-1-(2-chlorophenyl)-2-piperazinone], 5.01 to 200 nM; to `CC(C)Oc1cc(F)ccc1N1CCN(C(=O)c2cccc(C(F)(F)F)c2Cl)CC1=O` [Example 57, 4-{[2-chloro-3-(trifluoromethyl)phenyl]carbonyl}-1-{4-fluoro-2-[(1-methylethyl)oxy]phenyl}-2-piperazinone], 2.51 to 100 nM.

On to `O=C(c1ccc(Cl)cc1Cl)N1CCN(c2ccccc2Cl)C(=O)C1` [Example 8, 1-(2-Chlorophenyl)-4-[(2,4-dichlorophenyl)carbonyl]-2-piperazinone], for which the IC50 was 5.01 to 200 nM. For the compound `Cc1ccc(N2CCC(O)C2)cc1N1CCN(C(=O)c2cccc(C(F)(F)F)c2Cl)CC1=O` (centres unmarked) [Example 83, 4-{[2-chloro-3-(trifluoromethyl)phenyl]carbonyl}-1-[5-(3-hydroxy-1-pyrrolidinyl)-2-methylphenyl]-2-piperazinone], the IC50 was 2.51 to 100 nM. To `CC(C)c1ccccc1N1CCN(C(=O)c2ccc(F)cc2Cl)CC1=O` [Example 26, 4-[(2-chloro-4-fluorophenyl)carbonyl]-1-[2-(1-methylethyl)phenyl]-2-piperazinone] belongs 2.51 to 100 nM.

Consider `O=C(c1cccc(C(F)(F)F)c1Cl)N1CCN(c2ccc(F)cc2Cl)C(=O)C1` [Example 10, 1-(2-Chloro-4-fluorophenyl)-4-{[2-chloro-3-(trifluoromethyl)phenyl]carbonyl}-2-piperazinone], for which the IC50 was 5.01 to 200 nM. Turning to `O=C(c1cccc(Cl)c1Cl)N1CCN(c2cccc3ccccc23)C(=O)C1` [Example 22, 4-[(2,3-dichlorophenyl)carbonyl]-1-(1-naphthalenyl)-2-piperazinone], the IC50 is 2.51 to 100 nM. To `Cc1ccccc1N1CCN(C(=O)c2cccc(Cl)c2Cl)CC1=O` [Example 4, 4-[(2,3-Dichlorophenyl)carbonyl]-1-(2-methylphenyl)-2-piperazinone] belongs 5.01 to 200 nM; to `O=C(c1ccc(F)c(F)c1Cl)N1CCN(c2ccc(F)cc2Cl)C(=O)C1` [Example 32, 4-[(2-chloro-3,4-difluorophenyl)carbonyl]-1-(2-chloro-4-fluorophenyl)-2-piperazinone], 2.51 to 100 nM; to `CC(c1ccccc1)N1CCN(C(=O)c2cccc(C(F)(F)F)c2Cl)CC1=O` (centres unmarked) [Example 85, 4-{[2-chloro-3-(trifluoromethyl)phenyl]carbonyl}-1-(1-phenylethyl)-2-piperazinone], 2.51 to 100 nM.

On to `Cc1cccc(C(=O)N2CCN(c3ccc(F)cc3Cl)C(=O)C2)c1Cl` [Example 30, 1-(2-chloro-4-fluorophenyl)-4-[(2-chloro-3-methylphenyl)carbonyl]-2-piperazinone], for which the IC50 was 2.51 to 100 nM.

Consider `O=C(c1c(Cl)cccc1Cl)N1CCN(c2ccc(F)cc2Cl)C(=O)C1` [Example 31, 1-(2-chloro-4-fluorophenyl)-4-[(2,6-dichlorophenyl)carbonyl]-2-piperazinone], for which the IC50 is 2.51 to 100 nM. To `CC(C)Oc1cc(F)ccc1N1CCN(C(=O)c2cccc(Cl)c2Cl)CC1=O` [Example 58, 4-[(2,3-dichlorophenyl)carbonyl]-1-{4-fluoro-2-[(1-methylethyl)oxy]phenyl}-2-piperazinone] belongs 2.51 to 100 nM. Regarding `O=C(c1ccc(F)cc1Cl)N1CCN(c2cccc3ccccc23)C(=O)C1` [Example 23, 4-[(2-chloro-4-fluorophenyl)carbonyl]-1-(1-naphthalenyl)-2-piperazinone], the IC50 was 2.51 to 100 nM. With `N#Cc1cc(F)ccc1N1CCN(C(=O)c2cccc(Cl)c2Cl)CC1=O` [Example 38, 2-{-4-[(2,3-dichlorophenyl)carbonyl]-2-oxo-1-piperazinyl}-5-fluorobenzonitrile], the IC50 is 2.51 to 100 nM. To `O=C(c1cccc(Cl)c1Cl)N1CCN(c2ccc(F)cc2Cl)C(=O)C1` [Example 11, 1-(2-Chloro-4-fluorophenyl)-4-[(2,3-dichlorophenyl)carbonyl]-2-piperazinone] belongs 5.01 to 200 nM; to `CC(C)CN1CCN(C(=O)c2cccc(Cl)c2Cl)CC1=O` [Example 39, 4-[(2,3-dichlorophenyl)carbonyl]-1-(2-methylpropyl)-2-piperazinone], 2.51 to 100 nM; to `O=C(c1cccc(C(F)(F)F)c1Cl)N1CCN(c2cc(N3CCOCC3)ccc2Cl)C(=O)C1` [Example 78, 1-[2-chloro-5-(4-morpholinyl)phenyl]-4-{[2-chloro-3-(trifluoromethyl)phenyl]-carbonyl}-2-piperazinone], 2.51 to 100 nM. Take `Cc1cc(F)c(Br)cc1N1CCN(C(=O)c2cccc(C(F)(F)F)c2Cl)CC1=O` [Example 45, 1-(5-bromo-4-fluoro-2-methylphenyl)-4-{[2-chloro-3-(trifluoromethyl)phenyl]carbonyl}-2-piperazinone]: the IC50 is 2.51 to 100 nM.
